Laboratory results as given in the supplement of paper PMC10307832.

What was measured:
Experiment in all cases: relative viability (nuclei count vs DMSO), 5 days (fraction); higher = more cells survive
201T = system: 201T
Procedure, shortened: (§1)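 Values are medians from duplicate plates. Each reflects relative viability, defined as the nuclei count of treated wells over that of vehicle wells. Lung cancer cell lines in 1536-well plates were pin-tool dosed one day after seeding with one drug alone or with a fixed anchor-drug dose plus five library-drug doses (not always all listed) in √10 steps, then fixed, stained and imaged at 4× after 5 days.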

A-427 = system: A-427
Procedure, shortened: as §1

BEN = system: BEN
Procedure, shortened: as §1

COR-L23 = system: COR-L23
Procedure, shortened: as §1

EKVX = system: EKVX
Procedure, shortened: as §1

EMC-BAC-2 = system: EMC-BAC-2
Procedure, shortened: as §1

EPLC-272H = system: EPLC-272H
Procedure, shortened: as §1

HCC-44 = system: HCC-44
Procedure, shortened: as §1

HCC-827 = system: HCC-827
Procedure, shortened: as §1

LK-2 = system: LK-2
Procedure, shortened: as §1

LXF-289 = system: LXF-289
Procedure, shortened: as §1

NCI-H1650 = system: NCI-H1650
Procedure, shortened: as §1

NCI-H1651 = system: NCI-H1651
Procedure, shortened: as §1

NCI-H1793 = system: NCI-H1793
Procedure, shortened: as §1

NCI-H1915 = system: NCI-H1915
Procedure, shortened: as §1

NCI-H2087 = system: NCI-H2087
Procedure, shortened: as §1

NCI-H2126 = system: NCI-H2126
Procedure, shortened: as §1

NCI-H2347 = system: NCI-H2347
Procedure, shortened: as §1

NCI-H358 = system: NCI-H358
Procedure, shortened: as §1

NCI-H460 = system: NCI-H460
Procedure, shortened: as §1

NCI-H596 = system: NCI-H596
Procedure, shortened: as §1

SW 1573 = system: SW 1573
Procedure, shortened: as §1

SMILES: Cc1cnc(-c2cnc(NCCNc3ccc(C#N)cn3)nc2-c2ccc(Cl)cc2Cl)[nH]1 + CS(=O)(=O)CCNCc1ccc(-c2ccc3ncnc(Nc4ccc(OCc5cccc(F)c5)c(Cl)c4)c3c2)o1 [Lapatinib] (partner 2 µM)
- relative viability (201T; first compound 0.08 µM): 1.05
- relative viability (201T; first compound 0.253 µM): 0.551
- relative viability (201T; first compound 0.8 µM): 1.01
- relative viability (201T; first compound 2.53 µM): 0.988
- relative viability (A-427; first compound 0.08 µM): 1.03
- relative viability (A-427; first compound 0.253 µM): 0.942
- relative viability (A-427; first compound 0.8 µM): 1.09
- relative viability (A-427; first compound 2.53 µM): 1.03
- relative viability (BEN; first compound 0.08 µM): 0.615
- relative viability (BEN; first compound 0.253 µM): 0.686
- relative viability (BEN; first compound 0.8 µM): 0.705
- relative viability (BEN; first compound 2.53 µM): 0.621
- relative viability (COR-L23; first compound 0.08 µM): 0.924
- relative viability (COR-L23; first compound 0.253 µM): 0.856
- relative viability (COR-L23; first compound 0.8 µM): 0.862
- relative viability (COR-L23; first compound 2.53 µM): 0.905
- relative viability (EKVX; first compound 0.08 µM): 0.235
- relative viability (EKVX; first compound 0.253 µM): 0.222
- relative viability (EKVX; first compound 2.53 µM): 0.224
- relative viability (EMC-BAC-2; first compound 0.08 µM): 1.02
- relative viability (EMC-BAC-2; first compound 0.253 µM): 0.808
- relative viability (EMC-BAC-2; first compound 0.8 µM): 0.887
- relative viability (EMC-BAC-2; first compound 2.53 µM): 0.859
- relative viability (EPLC-272H; first compound 0.08 µM): 1.08
- relative viability (EPLC-272H; first compound 0.253 µM): 0.88
- relative viability (EPLC-272H; first compound 0.8 µM): 0.599
- relative viability (EPLC-272H; first compound 2.53 µM): 0.946
- relative viability (HCC-44; first compound 0.08 µM): 0.99
- relative viability (HCC-44; first compound 0.253 µM): 0.858
- relative viability (HCC-44; first compound 0.8 µM): 0.989
- relative viability (HCC-44; first compound 2.53 µM): 1.06
- relative viability (HCC-827; first compound 0.08 µM): 0.189
- relative viability (HCC-827; first compound 0.8 µM): 0.213
- relative viability (HCC-827; first compound 2.53 µM): 0.179
- relative viability (LK-2; first compound 0.08 µM): 1.1
- relative viability (LK-2; first compound 0.253 µM): 0.885
- relative viability (LK-2; first compound 0.8 µM): 0.928
- relative viability (LK-2; first compound 2.53 µM): 0.897
- relative viability (LXF-289; first compound 0.08 µM): 0.957
- relative viability (LXF-289; first compound 0.253 µM): 0.806
- relative viability (LXF-289; first compound 0.8 µM): 0.896
- relative viability (LXF-289; first compound 2.53 µM): 1.04
- relative viability (NCI-H1650; first compound 0.08 µM): 0.842
- relative viability (NCI-H1650; first compound 0.253 µM): 0.668
- relative viability (NCI-H1650; first compound 0.8 µM): 0.387
- relative viability (NCI-H1650; first compound 2.53 µM): 0.555
- relative viability (NCI-H1651; first compound 0.08 µM): 0.937
- relative viability (NCI-H1651; first compound 0.253 µM): 0.712
- relative viability (NCI-H1651; first compound 0.8 µM): 0.862
- relative viability (NCI-H1651; first compound 2.53 µM): 0.917
- relative viability (NCI-H1793; first compound 0.08 µM): 0.608
- relative viability (NCI-H1793; first compound 0.253 µM): 0.678
- relative viability (NCI-H1793; first compound 0.8 µM): 0.721
- relative viability (NCI-H1793; first compound 2.53 µM): 1.02
- relative viability (NCI-H1915; first compound 0.08 µM): 0.985
- relative viability (NCI-H1915; first compound 0.8 µM): 0.947
- relative viability (NCI-H1915; first compound 2.53 µM): 1.04
- relative viability (NCI-H2087; first compound 0.08 µM): 1.16
- relative viability (NCI-H2087; first compound 0.253 µM): 0.729
- relative viability (NCI-H2087; first compound 0.8 µM): 1.39
- relative viability (NCI-H2087; first compound 2.53 µM): 0.979
- relative viability (NCI-H2126; first compound 0.08 µM): 0.753
- relative viability (NCI-H2126; first compound 0.253 µM): 0.728
- relative viability (NCI-H2126; first compound 0.8 µM): 0.786
- relative viability (NCI-H2126; first compound 2.53 µM): 0.741
- relative viability (NCI-H2347; first compound 0.08 µM): 0.862
- relative viability (NCI-H2347; first compound 0.253 µM): 0.649
- relative viability (NCI-H2347; first compound 0.8 µM): 1.06
- relative viability (NCI-H2347; first compound 2.53 µM): 1.02
- relative viability (NCI-H358; first compound 0.08 µM): 0.43
- relative viability (NCI-H358; first compound 0.253 µM): 0.49
- relative viability (NCI-H358; first compound 0.8 µM): 0.412
- relative viability (NCI-H358; first compound 2.53 µM): 0.401
- relative viability (NCI-H460; first compound 0.08 µM): 0.943
- relative viability (NCI-H460; first compound 0.253 µM): 0.826
- relative viability (NCI-H460; first compound 0.8 µM): 0.864
- relative viability (NCI-H460; first compound 2.53 µM): 0.775
- relative viability (NCI-H596; first compound 0.08 µM): 1.04
- relative viability (NCI-H596; first compound 0.253 µM): 0.994
- relative viability (NCI-H596; first compound 0.8 µM): 1.09
- relative viability (NCI-H596; first compound 2.53 µM): 1.02
- relative viability (SW 1573; first compound 0.08 µM): 1.02
- relative viability (SW 1573; first compound 0.253 µM): 1.04
- relative viability (SW 1573; first compound 0.8 µM): 1.1
- relative viability (SW 1573; first compound 2.53 µM): 1.02
